The values that follow are results of earlier work, collected in patent US8828412B2, “Stable polyphenol containing ophthalmic emulsion for treating dry eyes” (Abbott Medical Optics Inc., priority 2009, dated 2014).

Each structure is given as a SMILES string.

The conditions of this series: reported; species not stated.

With `COc1cc(/C=C/C(=O)CC(=O)/C=C/c2ccc(O)c(OC)c2)ccc1O` [curcumin], the oral bioavailability entry is listed as “about 60%”.
